# Laboratory results taken from ChEMBL document CHEMBL3885881, “DrugMatrix”.
# Species: Rattus norvegicus
# Assay: DrugMatrix - Regimen: Daily Repeat
# Assay type: toxicity, organism-based, Sprague-Dawley
# Design: regimen Daily Repeat, gender Male, age 6-8 weeks
# Details: in vivo, po, route oral GAVAGE, vehicle 100 % WATER; for ABSOLUTE BASOPHIL / ABSOLUTE EOSINOPHIL / ABSOLUTE LYMPHOCYTE / ABSOLUTE MONOCYTE / ABSOLUTE SEGMENTED NEUTROPHIL / BASOPHIL / EOSINOPHIL / ERYTHROCYTE COUNT / HEMATOCRIT / HEMOGLOBIN / LEUKOCYTE COUNT / LYMPHOCYTE / MEAN CORPUSCULAR HEMOGLOBIN / MEAN CORPUSCULAR HEMOGLOBIN CONCENTRATION / MEAN CORPUSCULAR VOLUME / MONOCYTE / NEUTROPHIL / NUCLEATED RED BLOOD CELLS / PLATELET COUNT: tissue Blood; for ALANINE AMINOTRANSFERASE / ALBUMIN / ALKALINE PHOSPHATASE / ASPARTATE AMINOTRANSFERASE / BLOOD UREA NITROGEN / CARBON DIOXIDE / CHLORIDE / CHOLESTEROL / CREATINE PHOSPHOKINASE / CREATININE / GLUCOSE / LACTATE DEHYDROGENASE / LIPASE / PHOSPHORUS / POTASSIUM / SODIUM / TOTAL BILIRUBIN / TOTAL PROTEIN / URIC ACID: tissue Plasma
# [1] = 20 mg/kg, 120 h, dose level Low, time 5 day
# [2] = 160 mg/kg, 72 h, dose level High, time 3 day
# [3] = 160 mg/kg, 120 h, dose level High, time 5 day
smiles,measurement,setting,value
CN(C)CCC=C1c2ccccc2CCc2ccccc21 [AMITRIPTYLINE],ABSOLUTE BASOPHIL,[1],0 CELLS/uL
same,ABSOLUTE EOSINOPHIL,[1],0 CELLS/uL
same,ABSOLUTE LYMPHOCYTE,[1],11980.67 CELLS/uL
same,ABSOLUTE MONOCYTE,[1],40.67 CELLS/uL
same,ABSOLUTE SEGMENTED NEUTROPHIL,[1],1045.33 CELLS/uL
same,BASOPHIL,[1],0%
same,EOSINOPHIL,[1],0%
same,ERYTHROCYTE COUNT,[1],5.76 x10E6/uL
same,HEMATOCRIT,[1],35.93%
same,HEMOGLOBIN,[1],14.33 G/DL
same,LEUKOCYTE COUNT,[1],13.07 x10E3/uL
same,LYMPHOCYTE,[1],91.33%
same,MEAN CORPUSCULAR HEMOGLOBIN,[1],24.93 pg
same,MEAN CORPUSCULAR HEMOGLOBIN CONCENTRATION,[1],39.9 G/DL
same,MEAN CORPUSCULAR VOLUME,[1],62.43 fL
same,MONOCYTE,[1],0.33%
same,NEUTROPHIL,[1],8.33%
same,NUCLEATED RED BLOOD CELLS,[1],0.33 /100WBC
same,PLATELET COUNT,[1],1316.67 x10E3/uL
same,ALANINE AMINOTRANSFERASE,[1],43.67 u/L
same,ALBUMIN,[1],4 G/DL
same,ALKALINE PHOSPHATASE,[1],394 u/L
same,ASPARTATE AMINOTRANSFERASE,[1],89.67 u/L
same,BLOOD UREA NITROGEN,[1],15.33 mg/dL
same,CARBON DIOXIDE,[1],30 mmol/L
same,CHLORIDE,[1],100.33 MEQ/L
same,CHOLESTEROL,[1],66.67 mg/dL
same,CREATINE PHOSPHOKINASE,[1],486 u/L
same,CREATININE,[1],0.18 mg/dL
same,GLUCOSE,[1],145.33 mg/dL
same,LACTATE DEHYDROGENASE,[1],605.67 u/L
same,LIPASE,[1],11 u/L
same,PHOSPHORUS,[1],12.43 mg/dL
same,POTASSIUM,[1],6.68 MEQ/L
same,SODIUM,[1],141.6 MEQ/L
same,TOTAL BILIRUBIN,[1],0.2 mg/dL
same,TOTAL PROTEIN,[1],5.97 G/DL
same,URIC ACID,[1],1.87 mg/dL
same,ABSOLUTE BASOPHIL,[2],0 CELLS/uL
same,ABSOLUTE EOSINOPHIL,[2],85.33 CELLS/uL
same,ABSOLUTE LYMPHOCYTE,[2],16571 CELLS/uL
same,ABSOLUTE MONOCYTE,[2],212.67 CELLS/uL
same,ABSOLUTE SEGMENTED NEUTROPHIL,[2],697.67 CELLS/uL
same,BASOPHIL,[2],0%
same,EOSINOPHIL,[2],0.67%
same,ERYTHROCYTE COUNT,[2],5.93 x10E6/uL
same,HEMATOCRIT,[2],38.63%
same,HEMOGLOBIN,[2],15.33 G/DL
same,LEUKOCYTE COUNT,[2],17.57 x10E3/uL
same,LYMPHOCYTE,[2],94%
same,MEAN CORPUSCULAR HEMOGLOBIN,[2],25.83 pg
same,MEAN CORPUSCULAR HEMOGLOBIN CONCENTRATION,[2],39.7 G/DL
same,MEAN CORPUSCULAR VOLUME,[2],65.13 fL
same,MONOCYTE,[2],1%
same,NEUTROPHIL,[2],4.33%
same,NUCLEATED RED BLOOD CELLS,[2],0 /100WBC
same,PLATELET COUNT,[2],1403.33 x10E3/uL
same,ALANINE AMINOTRANSFERASE,[2],60 u/L
same,ALBUMIN,[2],4.1 G/DL
same,ALKALINE PHOSPHATASE,[2],422 u/L
same,ASPARTATE AMINOTRANSFERASE,[2],80.33 u/L
same,BLOOD UREA NITROGEN,[2],14 mg/dL
same,CARBON DIOXIDE,[2],34 mmol/L
same,CHLORIDE,[2],102 MEQ/L
same,CHOLESTEROL,[2],83 mg/dL
same,CREATINE PHOSPHOKINASE,[2],464 u/L
same,CREATININE,[2],0.15 mg/dL
same,GLUCOSE,[2],151.67 mg/dL
same,LACTATE DEHYDROGENASE,[2],162.67 u/L
same,LIPASE,[2],10.33 u/L
same,PHOSPHORUS,[2],11.3 mg/dL
same,POTASSIUM,[2],5.61 MEQ/L
same,SODIUM,[2],145.53 MEQ/L
same,TOTAL BILIRUBIN,[2],0.13 mg/dL
same,TOTAL PROTEIN,[2],5.93 G/DL
same,URIC ACID,[2],1.57 mg/dL
same,ABSOLUTE BASOPHIL,[3],0 CELLS/uL
same,ABSOLUTE EOSINOPHIL,[3],42.33 CELLS/uL
same,ABSOLUTE LYMPHOCYTE,[3],10052.67 CELLS/uL
same,ABSOLUTE MONOCYTE,[3],70 CELLS/uL
same,ABSOLUTE SEGMENTED NEUTROPHIL,[3],435 CELLS/uL
same,BASOPHIL,[3],0%
same,EOSINOPHIL,[3],0.33%
same,ERYTHROCYTE COUNT,[3],5.82 x10E6/uL
same,HEMATOCRIT,[3],36.27%
same,HEMOGLOBIN,[3],14.2 G/DL
same,LEUKOCYTE COUNT,[3],10.6 x10E3/uL
same,LYMPHOCYTE,[3],94.67%
same,MEAN CORPUSCULAR HEMOGLOBIN,[3],24.37 pg
same,MEAN CORPUSCULAR HEMOGLOBIN CONCENTRATION,[3],39.17 G/DL
same,MEAN CORPUSCULAR VOLUME,[3],62.27 fL
same,MONOCYTE,[3],0.67%
same,NEUTROPHIL,[3],4.33%
same,NUCLEATED RED BLOOD CELLS,[3],0.33 /100WBC
same,PLATELET COUNT,[3],1249.67 x10E3/uL
same,ALANINE AMINOTRANSFERASE,[3],49.67 u/L
same,ALBUMIN,[3],4 G/DL
same,ALKALINE PHOSPHATASE,[3],363.67 u/L
same,ASPARTATE AMINOTRANSFERASE,[3],96.67 u/L
same,BLOOD UREA NITROGEN,[3],14.67 mg/dL
same,CARBON DIOXIDE,[3],30.33 mmol/L
same,CHLORIDE,[3],100.67 MEQ/L
same,CHOLESTEROL,[3],72.67 mg/dL
same,CREATINE PHOSPHOKINASE,[3],1225 u/L
same,CREATININE,[3],0.16 mg/dL
same,GLUCOSE,[3],188 mg/dL
same,LACTATE DEHYDROGENASE,[3],246.67 u/L
same,LIPASE,[3],10.33 u/L
same,PHOSPHORUS,[3],12.93 mg/dL
same,POTASSIUM,[3],5.4 MEQ/L
same,SODIUM,[3],143.4 MEQ/L
same,TOTAL BILIRUBIN,[3],0.17 mg/dL
same,TOTAL PROTEIN,[3],6.23 G/DL
same,URIC ACID,[3],1.83 mg/dL
